Laboratory results reported in patent US10858342B2, “Bicyclic imidazole derivatives useful for the treatment of renal diseases, cardiovascular diseases and fibrotic diseases” (Boehringer Ingelheim International GmbH, priority 2016, dated 2020).
Like-named read-outs stand apart in the source and are kept apart here.

Tests used:
Assay type in all cases: biochemical, cynomolgus monkey
[1] = molecular target: cortisol synthase (CYP11B1) (Macaca fascicularis, UniProt A0A2K5ULY1); assay: Inhibition of cortisol synthesis (cynomolgus adrenal mitochondria, cortisol by mass spectrometry)
Experimental: The aldosterone synthase and cortisol synthase inhibition assays employ cynomolgus adrenal gland mitochondria as the source of aldosterone synthase (CYP11B2) and cortisol synthase (CYP11B1). Mitochondria are prepared from frozen cynomolgus monkey adrenal glands according to Method A described in by J. D. McGarry et al. (Biochem. J., 1983, 214, 21-28), with a final resuspension in the AT buffer described in R. Yamaguchi et al. (Cell Death and Differentiation, 2007, 14, 616-624), frozen as aliquots in liquid nitrogen and stored at −80° C. until use. One unit of CYP11B2 and CYP11B1 activity in these preparations is defined as the amount of enzyme that generates 1 pmol of product in one hour under the conditions described.
(§1) Assays are performed in 96-well format in a final volume of 60 microL/well, containing 100 mM potassium phosphate, pH 7.4, 1% (v/v) DMSO, and additionally, 2 μM of corticosterone and 50 units of CYP11B2 activity. Reactions are started by the addition of NADPH to 1 mM and allowed to proceed for 90 minutes at 37° C. Reactions are terminated by the addition of 60 μL of MeCN containing an internal standard for mass spectrometry. One hundred microliters are then transferred to a glass filter plate and centrifuged at 570×g for 5 minutes and the filtrate is collected. Reaction product aldosterone is quantified by mass spectrometry. To determine the assay blank value (0% activity), NADPH is omitted from some reactions.
Dose dependent inhibition is quantified by the inclusion of compound at various concentrations. Maximum activity (100%) is defined by reactions containing NADPH, but without compound. Activities at each concentration are expressed as a percentage of the maximum activity (y-axis) and plotted against concentration of compound (x-axis) and the concentration corresponding to 50% activity (IC50) determined using the XLFit curve-fitting program using a 4-parameter logistic model.
Assays are performed as for aldosterone synthase except for the use of 150 units of CYP11B1, 11-deoxycortisol as substrate and cortisol measured as product.

[2] = molecular target: aldosterone synthase (CYP11B2) (Macaca fascicularis, UniProt A0A2K5UPL9); assay: Inhibition of aldosterone synthase (cynomolgus adrenal mitochondria, aldosterone by mass spectrometry); details: 2 μM corticosterone substrate, 50 units CYP11B2, 90 min, 37° C.; read-out: Aldosterone Inhibition IC50
Experimental: (§2) The aldosterone synthase and cortisol synthase inhibition assays employ cynomolgus adrenal gland mitochondria as the source of aldosterone synthase (CYP11B2) and cortisol synthase (CYP11B1). […] One unit of CYP11B2 and CYP11B1 activity in these preparations is defined as the amount of enzyme that generates 1 pmol of product in one hour under the conditions described.
(§3) The compounds of the invention may be evaluated for aldosterone synthase inhibition by the following assay:
as §1
(§4) Dose dependent inhibition is quantified by the inclusion of compound at various concentrations. Maximum activity (100%) is defined by reactions containing NADPH, but without compound.

[3] = tested on: aldosterone synthase (CYP11B2); assay: as above; details: selectivity for aldosterone synthase inhibition over cortisol synthase (CYP11B1) inhibition, fold
Experimental: as §2, §3, §1, §4

[4] = 11-deoxycortisol substrate, 150 units CYP11B1; read-out: Cortisol Inhibition IC50
[5] = read-out: Cortisol Inhibition IC50; 11-deoxycortisol substrate, 150 units CYP11B1

aldosterone synthase (CYP11B2) (Macaca fascicularis, UniProt A0A2K5UPL9), sequence (A0A2K5UPL9 1-503): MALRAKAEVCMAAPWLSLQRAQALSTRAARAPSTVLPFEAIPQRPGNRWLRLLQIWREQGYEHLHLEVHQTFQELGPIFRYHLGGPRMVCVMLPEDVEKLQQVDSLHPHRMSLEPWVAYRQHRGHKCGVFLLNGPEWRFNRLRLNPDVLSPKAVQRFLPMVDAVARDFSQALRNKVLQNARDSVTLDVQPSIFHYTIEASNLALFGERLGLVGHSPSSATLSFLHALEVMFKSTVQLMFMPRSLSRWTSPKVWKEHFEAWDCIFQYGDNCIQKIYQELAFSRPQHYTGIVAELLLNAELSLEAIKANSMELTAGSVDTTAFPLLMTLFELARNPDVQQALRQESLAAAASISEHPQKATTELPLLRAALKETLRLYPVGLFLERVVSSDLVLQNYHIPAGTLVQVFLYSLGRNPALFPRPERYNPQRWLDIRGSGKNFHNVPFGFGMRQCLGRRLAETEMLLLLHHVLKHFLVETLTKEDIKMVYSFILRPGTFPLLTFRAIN

Row | Compound | IC50 [1, 4] [nM] | IC50 [2] [nM] | Selectivity [3] | IC50 [1, 5] [nM]
1 | O=C1CCCc2ncn(-c3ccc4c(c3)OCCCO4)c21 [C-AAJ, 3-(3,4-Dihydro-2H-benzo[b][1,4]dioxepin-7-yl)-3,5,6,7-tetrahydro-benzoimidazol-4-one] | > 30000 | 440 | 67 | 
2 | N#Cc1ccc(-n2cnc3c2C(=O)CCC3)c(C2CC2)c1 [C-AAK, 3-Cyclopropyl-4-(7-oxo-4,5,6,7-tetrahydro-benzoimidazol-1-yl)-benzonitrile] | 17000 | 34 | 500 | 
3 | N#Cc1ccc(-n2cnc3c2C(=O)CCC3)cc1 [C-AAL, 4-(7-Oxo-4,5,6,7-tetrahydro-benzoimidazol-1-yl)-benzonitrile] | 4600 | 19 | 250 | 
4 | Cn1c(=O)oc2cc(-n3cnc4c3C(=O)CCC4)ccc21 [C-AAM, 3-Methyl-6-(7-oxo-4,5,6,7-tetrahydro-benzoimidazol-1-yl)-3H-benzooxazol-2-one] | > 30000 | 120 | 240 | 
5 | CN1C(=O)COc2cc(-n3cnc4c3C(=O)CCC4)ccc21 [C-AAN, 4-Methyl-7-(7-oxo-4,5,6,7-tetrahydro-benzoimidazol-1-yl)-4H-benzo[1,4]oxazin-3-one] | > 30000 | 84 | 360 | 
6 | Cc1cc(-n2cnc3c2C(=O)CC2(CCOCC2)C3)ccc1C#N [C-AAO, 2-Methyl-4-(7-oxospiro[4,6-dihydrobenzoimidazole-5,4′-tetrahydropyran]-1-yl)benzonitrile] | 2300 | 77 | 30 | 
7 | CN1C(=O)CCc2cc(-n3cnc4c3C(=O)CC3(CCOCC3)C4)ccc21 [C-AAP, 3-(1-Methyl-2-oxo-3,4-dihydroquinolin-6-yl)spiro[5,7-dihydrobenzoimidazole-6,4′-tetrahydropyran]-4-one] | > 30000 | 460 | 65 | 
8 | O=C1CC2(CCOCC2)Cc2ncn(-c3ccc(Cl)cc3)c21 [C-AAR, 3-(4-Chloro-phenyl)-6,6-3-o-tetrahydropyran-3,5,6,7-tetrahydro-benzoimidazol-4-one] | 5000 | 69 | 73 | 
9 | N#Cc1ccc(-n2cnc3c2C(=O)CC2(CCOCC2)C3)cc1 [C-AAS, 4-(7-Oxospiro[4,6-dihydrobenzimidazole-5,4′-tetrahydropyran]-1-yl)benzonitrile] | 14000 | 240 | 61 | 
10 | N#Cc1ccc(-n2cnc3c2C(=O)CC2(CCC2)C3)cc1 [C-AAT, 4-(7-Oxospiro[4,6-dihydrobenzimidazole-5,1′-cyclobutan]-1-yl)benzonitrile] | 480 | 3.8 | 130 | 
11 | Cc1cc(-n2cnc3c2C(=O)CC2(CCC2)C3)ccc1C#N [C-AAU, 2-Methyl-4-(7-oxospiro[4,6-dihydrobenzimidazole-5,1′-cyclobutan]-1-yl)benzonitrile] | 51 | 10 | 5.0 | 
12 | CN1C(=O)CCc2cc(-n3cnc4c3C(=O)CC3(CCC3)C4)ccc21 [C-AAV, 3-(1-Methyl-2-oxo-3,4-dihydroquinolin-6-yl)spiro[5,7-dihydrobenzimidazole-6,1′-cyclobutane]-4-one] | 14000 | 47 | 300 | 
13 | N#Cc1ccc(-n2cnc3c2C(=O)CC2(CC2)C3)cc1Cl [C-AAW, 3-(3-Chloro-4-cyano)-6,6-spirocyclopropyl-3,5,6,7-tetrahydrobenzimidazol-4-one] |  | 5 | 43 | 220
14 | N#Cc1ccc(-n2cnc3c2C(=O)CC2(CC2)C3)cc1 [C-AAX, 3-(4-Cyanophenyl)-6,6-spirocyclpropyl-3,5,6,7-tetrahydro-benzimidazol-4-one] | 1900 | 8.5 | 230 | 
15 | O=C1CCCc2ncn(-c3ccc4c(c3)CCCN4)c21 [C-ABB, 3-(1,2,3,4-Tetrahydro-quinolin-6-yl)-3,5,6,7-tetrahydro-benzoimidazol-4-one] | > 30000 | 250 | 120 | 
16 | CC1(C)CC(=O)c2c(ncn2-c2ccc(F)c(F)c2)C1 [C-ABC, 3-(3,4-Difluoro-phenyl)-6,6-dimethyl-3,5,6,7-tetrahydro-benzimidazol-4-one] | 650 | 10 | 63 | 
17 | CC1(C)CC(=O)c2c(ncn2-c2ccc(Cl)c(Cl)c2)C1 [C-ABD, 3-(3,4-Dichloro-phenyl)-6,6,-dimethyl-3,5,6,7-tetrahydro-benzoimidazol-4-one] | 370 | 3.1 | 120 | 
18 | CC1(C)CC(=O)c2c(ncn2-c2ccc(C#N)c(Cl)c2)C1 [C-ABE, 2-Chloro-4-(5,5-dimethyl-7-oxo-4,5,6,7-tetrahydro-benzoimidazol-1-yl)-benzonitrile] |  | 1.3 | 79 | 110
19 | CC1(C)CC(=O)c2c(ncn2-c2cccc(Cl)c2Cl)C1 [C-ABF, 3-(2,3-Dichloro-phenyl)-6,6-dimethyl-3,5,6,7-tetrahydro-benzoimidazol-4-one] | 610 | 3.8 | 160 | 
20 | CC1(C)CC(=O)c2c(ncn2-c2ccc(Cl)cc2Cl)C1 [C-ABG, 3-(2,4-Dichloro-phenyl)-6,6-dimethyl-3,5,6,7-tetrahydro-benzoimidazol-4-one] | 500 | 4.2 | 120 | 
21 | CC1(C)CC(=O)c2c(ncn2-c2cc(Cl)cc(Cl)c2)C1 [C-ABH, 3-(3,5-Dichloro-phenyl)-6,6-dimethyl-3,5,6,7-tetrahydro-benzoimidazol-4-one] | 5200 | 22 | 240 | 
22 | CC1(C)CC(=O)c2c(ncn2-c2ccc(F)c(Cl)c2)C1 [C-ABI, 3-(3-Chloro-4-fluoro-phenyl)-6,6-dimethyl-3,5,6,7-tetrahydro-benzoimidazol-4-one] | 910 | 4.8 | 190 | 
23 | CC(C)Oc1ccc(-n2cnc3c2C(=O)CC(C)(C)C3)cc1Cl [C-ABJ, 3-(3-Chloro-4-isopropoxy-phenyl)-6,6-dimethyl-3,5,6,7-tetrahydro-benzoimidazol-4-one] | 95000 | 75 | 1300 | 
24 | CC1(C)CC(=O)c2c(ncn2-c2cccc(Cl)c2)C1 [C-ABK, 3-(3-Chloro-phenyl)-6,6-dimethyl-3,5,6,7-tetrahydro-benzoimidazol-4-one] | 7000 | 19 | 370 | 
25 | CC(=O)c1ccc(-n2cnc3c2C(=O)CC(C)(C)C3)cc1 [C-ABL, 3-(4-Acetyl-phenyl)-6,6-dimethyl-3,5,6,7-tetrahydro-benzoimidazol-4-one] | 8800 | 59 | 150 | 
26 | CC1(C)CC(=O)c2c(ncn2-c2ccc(Cl)c(F)c2)C1 [C-ABM, 3-(4-Chloro-3-fluoro-phenyl)-6,6-dimethyl-3,5,6,7-tetrahydro-benzoimidazol-4-one] | 770 | 4.7 | 160 | 
27 | CC1(C)CC(=O)c2c(ncn2-c2ccc(Cl)cc2)C1 [C-ABN, 3-(4-Chloro-phenyl)-6,6-dimethyl-3,5,6,7-tetrahydro-benzoimidazol-4-one] | 1000 | 15 | 67 | 
28 | CN(C)c1ccc(-n2cnc3c2C(=O)CC(C)(C)C3)cc1 [C-ABO, 3-(4-Dimethylamino-phenyl)-6,6-dimethyl-3,5,6,7-tetrahydro-benzoimidazol-4-one] | 35000 | 130 | 270 | 
29 | CC1(C)CC(=O)c2c(ncn2-c2ccc(F)cc2)C1 [C-ABP, 3-(4-Fluoro-phenyl)-6,6-dimethyl-3,5,6,7-tetrahydro-benzoimidazol-4-one] | 1100 | 21 | 52 | 
30 | COc1ccc(-n2cnc3c2C(=O)CC(C)(C)C3)cc1 [C-ABR, 3-(4-Methoxy-phenyl)-6,6-dimethyl-3,5,6,7-tetrahydro-benzoimidazol-4-one] | 21000 | 130 | 150 | 
